Measured values reported in patent US12497365B2, “4-pyridinyl formamide compound or derivative thereof, preparation method therefor, herbicidal composition and use thereof” (Qingdao Kingagroot Chemical Compound Co., Ltd., priority 2019, dated 2025).

Tests used:
Type in all cases: in vivo
Descurainia sophia = experiment: Weeding effect in post-emergence stage; details: for Weeding effect, activity level (growth control rate), Descurainia sophia: active ingredient 2000 g/ha, 3 weeks after application, fresh weight control rate
Outline: (§1)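 Pot-grown weeds at the 2-3 leaf stage receive a tower spray of test compound at 2000, 1000, 500, 250 or 125 g/ha, formulated in acetone with Tween 80 and methyl oleate synergist. Fresh weight reduction is rated on an activity scale 3 weeks later.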

Alopecurus aequalis = experiment: Weeding effect in post-emergence stage; details: active ingredient 250 g/ha
Text: (§2) The activity level criteria for plant damage (i.e., growth control rate) are as follows:
(§3) The above growth control rates are fresh weight control rates.
(§4) Experiment on weeding effect in post-emergence stage: monocotyledonous and dicotyledonous weed seeds and major crop seeds (wheat, corn, rice, soybean, cotton, oilseed rape, millet, sorghum) were placed in plastic pots filled with soil, then covered with 0.5-2 cm of soil, allowed to grow in a good greenhouse environment. After 2 weeks of sowing, the test plants were treated in the 2-3 leaf stage. The tested compounds of the present invention were respectively dissolved in acetone at the dosage of 2000, 1000, 500, 250, 125 g/ha, then added with Tween 80 and 1.5 liter/ha of emulsifiable concentrate of methyl oleate as synergist, diluted with a certain amount of water to obtain a solution with a certain concentration, and sprayed with a spray tower onto the plants. After the application, the plants were cultured for 3 weeks in the greenhouse, and then the experimental results were listed in Table 1.
(§5) In addition, under the active ingredient of 250 g/ha, many compounds also show good crop selectivity and excellent control effect on key weeds.

Sclerochloa dura = experiment: Weeding effect in post-emergence stage; details: active ingredient 250 g/ha
Text: as §2, §3, §4, §5

Alopecurus myosuroides = experiment: Weeding effect in post-emergence stage; details: active ingredient 250 g/ha
Text: as §2, §3, §4, §5

Beckmannia syzigachne = experiment: Weeding effect in post-emergence stage; details: active ingredient 250 g/ha
Text: as §2, §3, §4, §5

Wheat = experiment: Crop selectivity in post-emergence stage; details: active ingredient 250 g/ha
Text: as §2, §3, §4, §5

Chenopodium album = experiment: Weeding effect in post-emergence stage; details: active ingredient 2000 g/ha, 3 weeks after application, fresh weight control rate
Outline: as §1

[1] = test system: Amaranthus retroflexus L.; experiment: Weeding effect in post-emergence stage; details: active ingredient 2000 g/ha, 3 weeks after application, fresh weight control rate
Outline: as §1

Abutilon theophrasti = experiment: Weeding effect in post-emergence stage; details: active ingredient 2000 g/ha, 3 weeks after application, fresh weight control rate
Outline: as §1

SMILES | Activity level (growth control rate), Descurainia sophia (Descurainia sophia; active ingredient 250 g/ha) | Activity level (growth control rate), Alopecurus aequalis (Alopecurus aequalis) | Activity level (growth control rate), Sclerochloa dura (Sclerochloa dura) | Activity level (growth control rate), Alopecurus myosuroides (Alopecurus myosuroides) | Activity level (growth control rate), Beckmannia syzigachne (Beckmannia syzigachne) | Plant damage level (growth control rate), Wheat (Wheat) | Weeding effect, activity level (growth control rate), Chenopodium album (Chenopodium album) | Weeding effect, activity level (growth control rate), Descurainia sophia (Descurainia sophia) | Weeding effect, activity level (growth control rate), Amaranthus retroflexus L. [1] | Weeding effect, activity level (growth control rate), Abutilon theophrasti (Abutilon theophrasti)
Cc1nonc1NC(=O)c1ccnc(C)c1Cl [Control compound A, reference compound] | 0 (Level 0: growth control rate is less than 5%) | 0 (Level 0: growth control rate is less than 5%) | 0 (Level 0: growth control rate is less than 5%) | 0 (Level 0: growth control rate is less than 5%) | 0 (Level 0: growth control rate is less than 5%) | 0 (Level 0: growth control rate is less than 5%) | – | – | – | –
Cn1nnnc1NC(=O)c1ccnc(-c2ccc(OC(F)(F)F)cc2)c1Cl [Compound 1-33] | – | – | – | – | – | – | 5 (Level 5: growth control rate is above 85%) | 5 (Level 5: growth control rate is above 85%) | 5 (Level 5: growth control rate is above 85%) | 5 (Level 5: growth control rate is above 85%)
Cn1nnnc1NC(=O)c1ccnc(-c2cc3ccccc3c3ccccc23)c1Cl [Compound 1-115] | – | – | – | – | – | – | 5 (Level 5: growth control rate is above 85%) | 5 (Level 5: growth control rate is above 85%) | 5 (Level 5: growth control rate is above 85%) | 5 (Level 5: growth control rate is above 85%)
Cn1cncc1-c1nccc(C(=O)Nc2nnnn2C)c1Cl [Compound 1-234] | – | – | – | – | – | – | 5 (Level 5: growth control rate is above 85%) | 5 (Level 5: growth control rate is above 85%) | 5 (Level 5: growth control rate is above 85%) | 5 (Level 5: growth control rate is above 85%)
Cc1cc(F)ncc1-c1nccc(C(=O)Nc2nnnn2C)c1Cl [Compound 1-136] | – | – | – | – | – | – | 5 (Level 5: growth control rate is above 85%) | 5 (Level 5: growth control rate is above 85%) | 5 (Level 5: growth control rate is above 85%) | 5 (Level 5: growth control rate is above 85%)
Cc1ccc(-c2nccc(C(=O)Nc3nnnn3C)c2Cl)cc1F [Compound 1-68] | – | – | – | – | – | – | 5 (Level 5: growth control rate is above 85%) | 5 (Level 5: growth control rate is above 85%) | 5 (Level 5: growth control rate is above 85%) | 5 (Level 5: growth control rate is above 85%)
Cn1nnnc1NC(=O)c1ccnc(-c2ccnn2C2CCCCO2)c1Cl (centres unmarked) [Compound 1-182] | – | – | – | – | – | – | 5 (Level 5: growth control rate is above 85%) | 5 (Level 5: growth control rate is above 85%) | 5 (Level 5: growth control rate is above 85%) | 5 (Level 5: growth control rate is above 85%)
Cn1nnnc1NC(=O)c1ccnc(-c2ccc(F)cc2)c1Br [Compound 1-196] | – | – | – | – | – | – | 5 (Level 5: growth control rate is above 85%) | 5 (Level 5: growth control rate is above 85%) | 5 (Level 5: growth control rate is above 85%) | 5 (Level 5: growth control rate is above 85%)
CCCS(=O)(=O)c1nccc(C(=O)Nc2nnnn2C)c1Cl [Compound 1-2071] | – | – | – | – | – | – | 5 (Level 5: growth control rate is above 85%) | 5 (Level 5: growth control rate is above 85%) | 5 (Level 5: growth control rate is above 85%) | 5 (Level 5: growth control rate is above 85%)
Cn1nnnc1NC(=O)c1ccnc(-c2ccc(Oc3ccccc3)c(Cl)c2)c1Cl [Compound 1-107] | – | – | – | – | – | – | 5 (Level 5: growth control rate is above 85%) | 5 (Level 5: growth control rate is above 85%) | 5 (Level 5: growth control rate is above 85%) | 5 (Level 5: growth control rate is above 85%)
Cn1nnnc1NC(=O)c1ccnc(-c2cncnc2)c1Cl [Compound 1-156] | – | – | – | – | – | – | 5 (Level 5: growth control rate is above 85%) | 5 (Level 5: growth control rate is above 85%) | 5 (Level 5: growth control rate is above 85%) | 5 (Level 5: growth control rate is above 85%)
Cn1nnnc1NC(=O)c1ccnc(-c2cc(-c3ccccc3)cc(-c3ccccc3)c2)c1Cl [Compound 1-108] | – | – | – | – | – | – | 5 (Level 5: growth control rate is above 85%) | 5 (Level 5: growth control rate is above 85%) | 5 (Level 5: growth control rate is above 85%) | 5 (Level 5: growth control rate is above 85%)
COCCc1c(C(=O)Nc2nnnn2C)ccnc1-c1ccc(F)cc1 [Compound 1-217] | – | – | – | – | – | – | 5 (Level 5: growth control rate is above 85%) | 5 (Level 5: growth control rate is above 85%) | 5 (Level 5: growth control rate is above 85%) | 5 (Level 5: growth control rate is above 85%)
CCc1ccccc1-c1nccc(C(=O)Nc2nnnn2C)c1Cl [Compound 1-12] | – | – | – | – | – | – | 5 (Level 5: growth control rate is above 85%) | 5 (Level 5: growth control rate is above 85%) | 5 (Level 5: growth control rate is above 85%) | 5 (Level 5: growth control rate is above 85%)
Cn1nnnc1NC(=O)c1ccnc(-c2ccc(C#N)cn2)c1Cl [Compound 1-121] | – | – | – | – | – | – | 5 (Level 5: growth control rate is above 85%) | 5 (Level 5: growth control rate is above 85%) | 5 (Level 5: growth control rate is above 85%) | 5 (Level 5: growth control rate is above 85%)
COc1ccc(-c2nccc(C(=O)Nc3nnnn3C)c2Cl)c(Cl)c1 [Compound 1-102] | – | – | – | – | – | – | 5 (Level 5: growth control rate is above 85%) | 5 (Level 5: growth control rate is above 85%) | 5 (Level 5: growth control rate is above 85%) | 5 (Level 5: growth control rate is above 85%)
Cn1nnnc1NC(=O)c1ccnc(-c2ccc(C(F)(F)F)nc2)c1Cl [Compound 1-142] | – | – | – | – | – | – | 5 (Level 5: growth control rate is above 85%) | 5 (Level 5: growth control rate is above 85%) | 5 (Level 5: growth control rate is above 85%) | 5 (Level 5: growth control rate is above 85%)
COc1nccc(C(=O)Nc2nnnn2C)c1Cl [Compound 1-2061] | – | – | – | – | – | – | 5 (Level 5: growth control rate is above 85%) | 5 (Level 5: growth control rate is above 85%) | 5 (Level 5: growth control rate is above 85%) | 5 (Level 5: growth control rate is above 85%)
